Results as given in PubChem BioAssay AID2060899 (Molecular Pharmacology Branch, DTP, NCI, 2025).
pIC50: −log10 of the molar value.

Tested on: 565726-208-R1-J5-PDC complex spheroids, growth inhibition
Test: Anticancer human tumor 565726-208-R1-J5-PDC patient-derived pancreatic adenocarcinoma cell line growth inhibition [RAS]
Settings: for pIC50: curve of first compound; for viability, T/C: stronger effect = lower value
In short: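 Multi-cell-type spheroids: tumor cells plus HUVEC endothelial cells and mesenchymal stem cells. RAS-pathway inhibitors were combined with targeted agents, each dosed in half-log steps down from clinical Cmax, or from 10 microM when Cmax was unknown.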
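Note: spheroids exposed to compounds for seven days before readout.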
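Throughout, for viability, T/C: 100% = DMSO vehicle control viability.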

CC(C)n1nc(-c2ccc3oc(N)nc3c2)c2c(N)ncnc21 + CCn1c(-c2cc(N3CCN(C)CC3)cnc2C(C)OC)c2c3cc(ccc31)-c1csc(n1)CC(NC(=O)C1CC1C)C(=O)N1CCCC(N1)C(=O)OCC(C)(C)C2
pIC50 (second compound 0.000949 µM): 8.72 | pIC50 (second compound 0.003 µM): > 9.50 | pIC50 (second compound 0.00949 µM): > 9.50 | pIC50 (second compound 0.03 µM): > 9.50 | pIC50 (second compound 0.0949 µM): > 9.50 | pIC50 (second compound 0.3 µM): > 9.50 | viability, T/C (second compound 0.000949 µM, first compound 0.000316 µM): 65.3% | viability, T/C (second compound 0.000949 µM, first compound 0.001 µM): 48.7% | viability, T/C (second compound 0.000949 µM, first compound 0.00316 µM): 51.4% | viability, T/C (second compound 0.000949 µM, first compound 0.01 µM): 36.5% | viability, T/C (second compound 0.000949 µM, first compound 0.0316 µM): 23.8% | viability, T/C (second compound 0.000949 µM, first compound 0.1 µM): 17.7% | viability, T/C (second compound 0.003 µM, first compound 0.000316 µM): 48.6% | viability, T/C (second compound 0.003 µM, first compound 0.001 µM): 45.6% | viability, T/C (second compound 0.003 µM, first compound 0.00316 µM): 38.6% | viability, T/C (second compound 0.003 µM, first compound 0.01 µM): 28.4% | viability, T/C (second compound 0.003 µM, first compound 0.0316 µM): 20.7% | viability, T/C (second compound 0.003 µM, first compound 0.1 µM): 14.1% | viability, T/C (second compound 0.00949 µM, first compound 0.000316 µM): 40.4% | viability, T/C (second compound 0.00949 µM, first compound 0.001 µM): 35.5% | viability, T/C (second compound 0.00949 µM, first compound 0.00316 µM): 30.6% | viability, T/C (second compound 0.00949 µM, first compound 0.01 µM): 22.7% | viability, T/C (second compound 0.00949 µM, first compound 0.0316 µM): 15.7% | viability, T/C (second compound 0.00949 µM, first compound 0.1 µM): 10.6% | viability, T/C (second compound 0.03 µM, first compound 0.000316 µM): 30% | viability, T/C (second compound 0.03 µM, first compound 0.001 µM): 31.1% | viability, T/C (second compound 0.03 µM, first compound 0.00316 µM): 26% | viability, T/C (second compound 0.03 µM, first compound 0.01 µM): 17.5% | viability, T/C (second compound 0.03 µM, first compound 0.0316 µM): 13.2% | viability, T/C (second compound 0.03 µM, first compound 0.1 µM): 8.25% | viability, T/C (second compound 0.0949 µM, first compound 0.000316 µM): 26.7% | viability, T/C (second compound 0.0949 µM, first compound 0.001 µM): 25.9% | viability, T/C (second compound 0.0949 µM, first compound 0.00316 µM): 20.3% | viability, T/C (second compound 0.0949 µM, first compound 0.01 µM): 14.6% | viability, T/C (second compound 0.0949 µM, first compound 0.0316 µM): 10.4% | viability, T/C (second compound 0.0949 µM, first compound 0.1 µM): 6.63% | viability, T/C (second compound 0.3 µM, first compound 0.000316 µM): 22.7% | viability, T/C (second compound 0.3 µM, first compound 0.001 µM): 21.3% | viability, T/C (second compound 0.3 µM, first compound 0.00316 µM): 18.9% | viability, T/C (second compound 0.3 µM, first compound 0.01 µM): 15.1% | viability, T/C (second compound 0.3 µM, first compound 0.0316 µM): 11.1% | viability, T/C (second compound 0.3 µM, first compound 0.1 µM): 6.78%
